Patent publication US20110236501A1, “INJECTABLE DUAL DELIVERY ALLOGRAPH BONE/POLYMER COMPOSITE FOR TREATMENT OF OPEN FRACTURES” (Vanderbilt University, priority 2007, published 2011)
≈ marks a conversion by molar mass, not a printed value. Like-named read-outs stand apart in the source and are kept apart here.

What was measured:
[1] = In vitro release of BSA-FITC / protein from PUR scaffolds; type: physicochemical; conditions: added in solution, after 21 days
Procedure: A scaffold of the present invention was prepared by one-shot reactive liquid molding of HDIt and hardener containing polyester triol and PEG. BSA-FITC was added to the hardener component prior to mixing with HDIt. Considering that proteins incorporate groups with active hydrogens (e.g., hydroxyl groups and amines), there is a concern that the protein will react with the polyisocyanate, resulting in damage to the protein. […] To protect the protein from reacting with the polyisocyanate, BSA-FITC was lyophilized with a varying amount of glucose excipient and then added to the hardener as a powder. […] The glucose dosage plays an important role in the release profile; the presence of 0.5% and 2% glucose increased the total amount released after 21 days and increased the initial burst release. Further increasing the glucose dosage to 5% decreased the total release.
To evaluate the effect of encapsulation protein into PLGA particles on the release kinetics from PUR scaffold, small pieces of PUR scaffold incorporated with BSA-FITC powder or PLGA particles encapsulated with BSA-FITC were incubated in a-MEM containing 1% BSA under 37° C. the medium was changed as indicated in FIG. 18. The amount of BSA-FITC was determined by emission fluorescence at 530 nm after excitation at 485 nm.

[2] = Solubility of tobramycin in polyester polyol; type: physicochemical
Procedure: Tobramycin was added as a powder to the hardener prior to reaction with the triisocyanate resin in order to minimize its reactivity with the reactive two-component polyurethane. Tobramycin's five primary amino groups otherwise cause it to react rapidly with isocyanates when in solution. Tobramycin is insoluble in polyester polyol, the primary component in the hardener; consequently the tobramycin remains in the solid phase during the chemical reaction. A loading of 8 wt-% was chosen to approximate the level of tobramycin delivered from the equivalent volume of PMMA cement beads, but higher loading can be achieved if necessary.

S. aureus = conditions: cited from earlier work
[3] = In vitro release of PDGF-BB (I-125 labeling and ELISA); type: physicochemical; conditions: for total release of PDGF-BB: PUR scaffold with 2 wt % glucose
Procedure: To enhance the release of PDGF-BB, 2 wt % glucose was added to the scaffolds. The release profile was monitored by two methods. In the first approach, PDGF-BB was radiolabeled with iodine-125 (I-125) and a gamma reading machine was used to monitor the release kinetics. Release of PDGF-BB was also measured by ELISA assay using the liquid releasates. Both methods yield similar release profiles (FIG. 13), characterized by a burst release on the first day. The ELISA assay detected a lower total release (around 65%, compared with around 85% for I-125 labeling method), which is possibly due to denaturation of some fraction of the released protein which cannot be detected by its antibody.
To mitigate the burst release, another strategy was adopted to achieve controlled release of PDGF-BB from polyurethane scaffolds. Heparin was bound to the surface of microparticles made from amine-terminated PLGA (average size 50 μm) using standard carbodiimide techniques. PDGF-BB was then loaded onto the particle surface through heparin binding. […] To enhance the stability of the protein on the PLGA particle surface, the particles were granulated by mixing the particles with a small amount of gelatin solution followed by forcing through a 48-mesh sieve to form 110-μm granules. The granules were then added to the hardener component before reacting with isocyanate to form PUR/G-PDGF-BB polyurethane scaffolds. The PDGF-BB release from the granules is similar to that of particles when detected by I-125 labeling (FIG. 14A), but lower when measured by ELISA (FIG. 14B).

MC3T3 cells = experiment: In vitro cell proliferation assay of released PDGF-BB; type: cell-based; conditions: released PDGF-BB vs fresh PDGF-BB
Procedure: To assess the in vitro bioactivity of released PDGF-BB from the polyurethane scaffolds, releasates at day 1, 3, and 7 from PUR/PDGF-BB and PUR/G-PDGF-BB scaffolds were lyophilized and reconstituted to the same PDGF-BB concentration. After MC3T3 cells attached to the 96-well plates, the serum content in the cell culture medium was decreased from 10% to 2.5%. At the same time, the reconstituted releasates were added at dosages of 3 and 10 ng/ml. Fresh PDGF-BB (i.e., not released from the scaffolds but used directly as received from the supplier) was the positive control. Cell numbers were measured at time points of 24 and 72 h by staining the DNA and measuring fluorescence on a plate reader. […] At the 72 h time point, a dose-dependent effect was observed, although it was not evident at the 24 h time point.

[4] = In vitro release of vancomycin from PUR; type: physicochemical
Procedure: Methods: rhBMP-2 was purchased from R&D systems. V-FB was obtained by precipitation of vancomycin solution at pH 8. […] In vitro release experiment was carried out in PBS, with medium refreshed as indicated. […] The scaffolds were then tested in critical sized rat femoral segmental defects, contaminated or non-contaminated. After 4 or 8 weeks, the defects are harvested, and both the new bone formation and infection control were examined.

In the case of “BSA-FITC: Bone serum albumin-fluorescein isothiocyanate”, the “release of BSA-FITC” value [1] is reported as less than 20%.

In the case of `NC[C@H]1O[C@H](O[C@H]2[C@H](O)[C@@H](O[C@H]3O[C@H](CO)[C@@H](O)[C@H](N)[C@H]3O)[C@H](N)C[C@@H]2N)[C@H](N)C[C@@H]1O` [tobramycin], the “solubility in polyester polyol” value [2] is listed as “insoluble”, the minimum bactericidal concentration (S. aureus) is listed as 16 µg/mL (≈ 34.2 µM) and the minimum inhibitory concentration (S. aureus) is listed as 4 to 8 µg/mL.

For “PDGF-BB: Platelet-derived growth factor-BB”, the protein release ([3]; PDGF-BB added to PUR as a powder without the glucose excipient) was “negligible protein release”, the “total release of PDGF-BB” value ([3]; ELISA) was “around 65%” and the “total release of PDGF-BB” value ([3]; I-125 labeling) was “around 85%”. The “decreased activity compared with the positive control” value (MC3T3 cells) was 20%.

In the case of `CN[C@H](CC(C)C)C(=O)N[C@H]1C(=O)N[C@@H](CC(N)=O)C(=O)N[C@H]2C(=O)N[C@H]3C(=O)N[C@H](C(=O)N[C@H](C(=O)O)c4cc(O)cc(O)c4-c4cc3ccc4O)[C@H](O)c3ccc(c(Cl)c3)Oc3cc2cc(c3O[C@@H]2O[C@H](CO)[C@@H](O)[C@H](O)[C@H]2O[C@H]2C[C@](C)(N)[C@H](O)[C@H](C)O2)Oc2ccc(cc2Cl)[C@H]1O` [V-FB, vancomycin free base], the “duration of vancomycin release above the MIC for S. aureus” value [4] is reported as “up to 8 weeks” and the “duration of vancomycin release above the MIC for S. aureus” value ([4]; listed as vancomycin) is reported as “over 8 weeks”.
